By IC50 is commonly meant the point on the concentration scale where inhibition reaches its midpoint.

Three compounds from ChEMBL document CHEMBL3608308, “Design, synthesis and antiproliferative activity of novel heterobivalent hybrids based on imidazo[2,1-b][1,3,4]thiadiazole and imidazo[2,1-b][1,3]thiazole scaffolds” (Eur J Med Chem, 2015) can be followed below.

Assay [1] relates to L1210. The experiment in a line: Cytotoxicity against mouse L1210 cells. It is filed as functional, cell-based.
The subject of the next assay is SK-MEL-1. The assay can be described thus: Cytotoxicity against human SK-MEL-1 cells assessed as reduction in cell viability incubated for 72 hrs by MTT assay. The following applies: for IC50: SK-MEL-1, 72 h. It is filed as functional, cell-based. For orientation: Formazan colour is commonly taken as a measure of viable cells.
The test system of assay [2] is U-937. The assay can be described thus: Induction of apoptosis in human U937 cells over-expressing human Bcl-2 assessed as induction of increase in condensed and fragmented chromatin at 3 uM incubated for 8 hrs by Hoechst 33258 staining based fluorescent microscopy. It is filed as functional, cell-based.
The subject of assay [3] is HL-60. The experiment in a line: Induction of apoptosis in human HL60 cells assessed as hypodiploid cells level at 1 uM incubated for 24 hrs by propidium iodide staining based flow cytometry relative to untreated control. It is filed as functional. (In general: In flow cytometry, cells or beads pass a laser one at a time.)
In assay [4] the test system is U-937. The assay can be described thus: Induction of apoptosis in human U937 cells assessed as induction of increase in condensed and fragmented chromatin at 3 uM incubated for 8 hrs by Hoechst 33258 staining based fluorescent microscopy. It is filed as functional, cell-based.
Assay [5] deals with U-937. The experiment in a line: Cytotoxicity against human U937 cells assessed as reduction in cell viability incubated for 72 hrs by MTT assay. It is filed as functional, cell-based. The following applies: for IC50: U-937, 72 h.
The next assay concerns FM3A. The experiment in a line: Antiproliferative activity against mouse FM3A cells assessed as inhibition of cell proliferation incubated for 2 days by Coulter counter based assay. It is filed as functional. The following applies: 48 h.
The test system of assay [6] is HL-60. The assay can be described thus: Induction of apoptosis in human HL60 cells assessed as cleavage of pro-caspase-3 at 3 uM incubated for 8 hrs by immunoblot method. It is filed as functional, cell-based. (In general: A western blot detects proteins with antibodies after separation by electrophoresis.)
Assay [7] deals with HL-60. The experiment in a line: Induction of apoptosis in human HL60 cells assessed as hypodiploid cells level at 1 uM incubated for 24 hrs by propidium iodide staining based flow cytometry (reference value: 2.6 +/- 0.6%). It is filed as functional.
Assay [8] has as its system U-937. The experiment in a line: Cytotoxicity against human U937 cells over-expressing human Bcl-2 assessed as reduction in cell viability incubated for 72 hrs by MTT assay. It is filed as functional, cell-based. The following applies: for IC50: U-937, 72 h.
The test system of assay [9] is U-937. The experiment in a line: Induction of apoptosis in human U937 cells assessed as induction of cell shrinkage at 3 uM incubated for 8 hrs by Hoechst 33258 staining based fluorescent microscopy. It is filed as functional.
The subject of assay [10] is HL-60. The experiment in a line: Induction of DNA laddering in human HL60 cells at 3 to 10 uM incubated for 24 hrs by ethidium bromide staining based gel electrophoresis method. It is filed as functional, cell-based.
For assay [11], the system named is HL-60. The assay can be described thus: Cytotoxicity against human HL60 cells assessed as reduction in cell viability incubated for 72 hrs by MTT assay. The following applies: for IC50: HL-60, 72 h. It is filed as functional, cell-based.
Assay [12] concerns U-937. The experiment in a line: Induction of apoptosis in human U937 cells assessed as induction of increase in apoptotic bodies at 3 uM incubated for 8 hrs by Hoechst 33258 staining based fluorescent microscopy. It is filed as functional, cell-based.
The subject of assay [13] is U-937. The assay can be described thus: Induction of apoptosis in human U937 cells assessed as increase in cytochrome c release into cytosol at 3 uM incubated for 8 hrs by immunoblot method. It is filed as functional, cell-based.
Assay [14] deals with L1210. The experiment in a line: Antiproliferative activity against mouse L1210 cells assessed as inhibition of cell proliferation incubated for 2 days by Coulter counter based assay. The following applies: L1210, 48 h. It is filed as functional.
In assay [15] the test system is HL-60. The assay can be described thus: Induction of apoptosis in human HL60 cells assessed as induction of morphological changes by inverted phase contrast microscopy. It is filed as functional, cell-based.
In assay [16] the test system is U-937. The assay can be described thus: Induction of apoptosis in human U937 cells assessed as cleavage of pro-caspase-8 at 3 uM incubated for 8 hrs by immunoblot method. It is filed as functional, cell-based.
The test system of assay [17] is U-937. The assay can be described thus: Induction of apoptosis in human U937 cells over-expressing human Bcl-2 assessed as induction of morphological changes by inverted phase contrast microscopy. It is filed as functional, cell-based.
For assay [18], the system named is U-937. The assay can be described thus: Induction of apoptosis in human U937 cells assessed as cleavage of pro-caspase-3 at 3 uM incubated for 8 hrs by immunoblot method. It is filed as functional, cell-based.
The subject of assay [19] is U-937. The experiment in a line: Induction of apoptosis in human U937 cells over-expressing human Bcl-2 assessed as induction of increase in apoptotic bodies at 3 uM incubated for 8 hrs by Hoechst 33258 staining based fluorescent microscopy. It is filed as functional, cell-based.
Assay [20] concerns HL-60. The experiment in a line: Induction of apoptosis in human HL60 cells assessed as cleavage of pro-caspase-8 at 3 uM incubated for 8 hrs by immunoblot method. It is filed as functional, cell-based.
Assay [21] concerns HL-60. The experiment in a line: Induction of apoptosis in human HL60 cells assessed as cleavage of pro-caspase-9 at 3 uM incubated for 8 hrs by immunoblot method. It is filed as functional, cell-based.
Assay [22] deals with U-937. The experiment in a line: Induction of apoptosis in human U937 cells assessed as cleavage of pro-caspase-9 at 3 uM incubated for 8 hrs by immunoblot method. It is filed as functional, cell-based.
In assay [23] the test system is U-937. The assay can be described thus: Induction of apoptosis in human U937 cells over-expressing human Bcl-2 assessed as increase in cytochrome c release into cytosol at 3 uM incubated for 8 hrs by immunoblot method. It is filed as functional, cell-based.
The test system of assay [24] is HL-60. The experiment in a line: Induction of apoptosis in human HL60 cells assessed as cleavage of pro-caspase-3/7 activity at 3 uM incubated for 8 hrs DEVD-pNA chromogenic substrate proteolytic cleavage assay. It is filed as functional.
Assay [25] concerns U-937. The experiment in a line: Induction of apoptosis in human U937 cells assessed as induction of morphological changes by inverted phase contrast microscopy. It is filed as functional, cell-based.
Assay [26] deals with HL-60. The assay can be described thus: Induction of apoptosis in human HL60 cells assessed as increase in cytochrome c release into cytosol at 3 uM incubated for 8 hrs by immunoblot method. It is filed as functional, cell-based.
The test system of assay [27] is U-937. The assay can be described thus: Induction of apoptosis in human U937 cells over-expressing human Bcl-2 assessed as induction of cell shrinkage at 3 uM incubated for 8 hrs by Hoechst 33258 staining based fluorescent microscopy. It is filed as functional.
Assay [28] has as its system HL-60. The experiment in a line: Induction of apoptosis in human HL60 cells assessed as hypodiploid cells level at 1 and 10 uM incubated for 24 hrs by propidium iodide staining based flow cytometry. It is filed as functional, cell-based.
In another assay the test system is CCRF-CEM. The experiment in a line: Antiproliferative activity against human CEM cells assessed as inhibition of cell proliferation incubated for 3 days by Coulter counter based assay. It is filed as functional. The following applies: 72 h.
In the next assay the test system is HeLa. The experiment in a line: Antiproliferative activity against human HeLa cells assessed as inhibition of cell proliferation incubated for 4 days by Coulter counter based assay. It is filed as functional. The following applies: 96 h.

SMILES strings stand for the structures. The source made the active and inactive calls. The calls are words filed in the database; no cut-off is given here.

On to `C=C(Br)C(=O)O`, for which the IC50 in the assay with L1210 [1] is over 120 µM.

In the case of `C=C(Br)C(=O)Nc1cccc(-c2cn3c(-c4ccc(OC)cc4)csc3n2)c1`, the Activity entry was “Dose-dependent effect” in the assay on SK-MEL-1; “Dose-dependent effect” in the assay with U-937 [5]; 11.1% in the assay with HL-60 [7]; “Dose-dependent effect” with U-937 [8]; “Dose-dependent effect” in the assay with HL-60 [11]; “Dose-dependent effect” in the assay with HL-60 [28]. For the same compound, the IC50 was 1 µM in the assay on SK-MEL-1; 0.63 µM with U-937 [5]; 0.62 µM in the assay with FM3A; 0.37 µM in the assay on U-937 [8]; 0.61 µM in the assay on HL-60 [11]; 0.2 µM in the assay on L1210 [14]. Also, the IC50 worked out at 0.5 µM in the assay on CCRF-CEM and 0.86 µM in the assay with HeLa. The result in the assay with U-937 [2], with U-937 [4], in the assay with HL-60 [6], in the assay with U-937 [9], in the assay on U-937 [12] and with U-937 [13] was Active. The result with HL-60 [15], in the assay on U-937 [16], with U-937 [17], in the assay with U-937 [18], in the assay with U-937 [19] and in the assay on HL-60 [20] was Active. The result with HL-60 [21], in the assay with U-937 [22], with U-937 [23], in the assay on U-937 [25], with HL-60 [26] and in the assay with U-937 [27] was Active. Also, the “fold change (FC)” value amounted to 4 with HL-60 [3] and 3.8 with HL-60 [24]. In addition, in the assay on HL-60 [10], the result was inactive.

With `C=C(Br)C(=O)Nc1cccc(-c2cn3nc(-c4ccc(F)cc4)sc3n2)c1`, the Activity entry in the assay on SK-MEL-1 is “Dose-dependent effect”; in the assay on U-937 [5] it was “Dose-dependent effect”; with HL-60 [7] it was 12.1%; in the assay with U-937 [8], “Dose-dependent effect”; in the assay with HL-60 [11], “Dose-dependent effect”; in the assay on HL-60 [28] it was “Dose-dependent effect”. The IC50 is 1.1 µM in the assay with SK-MEL-1; 0.56 µM with U-937 [5]; 0.61 µM with FM3A; 0.37 µM with U-937 [8]; 0.53 µM in the assay with HL-60 [11]; 0.25 µM with L1210 [14]. Also, the IC50 in the assay on CCRF-CEM turned out to be 0.83 µM; with HeLa, 0.87 µM. Besides, the outcome with U-937 [2], in the assay with U-937 [4], in the assay with HL-60 [6], in the assay on U-937 [9], with U-937 [12] and in the assay with U-937 [13] was Active. Further, the outcome in the assay with HL-60 [15], in the assay with U-937 [16], with U-937 [17], in the assay on U-937 [18], with U-937 [19] and with HL-60 [20] was Active. Moreover, the result with HL-60 [21], in the assay with U-937 [22], with U-937 [23], in the assay on U-937 [25], in the assay with HL-60 [26] and with U-937 [27] was Active. The “fold change (FC)” value with HL-60 [3] stood at 4.6; in the assay on HL-60 [24], 2.3. Moreover, the result in the assay with HL-60 [10] was inactive.
